According to patent US20240252586A1, “ENGINEERED ANTIMICROBIAL PEPTIDES AND USAGE THEREOF” (priority 2021, published 2024):
“And” between values parts separate entries of the source, which are not always exact repeats. Equal values may be shown once. Read-outs that look alike come from different tables or passages of the source. Where no end group is shown, it is not given here.

Key:
S. aureus = test: Broth microdilution MIC, PJI isolates (Example 1); format: cell-based, Staphylococcus aureus; conditions: RPMI; N = 3
Description: (§1) Imipenem, levofloxacin, tigecycline, linezolid, vancomycin, oxacillin, ceftazidime, colistin, and amikacin were tested as comparators. Testing was conducted in accordance with guidelines from the Clinical and Laboratory Standards Institute (CLSI; M7 and M100). Test organisms comprised reference strains from the American Type Culture Collection, the Centers for Disease Control Antibiotic Reference Bank and clinical isolates from the Micromyx repository.

Enterobacterales = test: Broth microdilution MIC, PJI isolates (Example 1); format: cell-based; conditions: RPMI; N = 22
Description: as §1

A. baumannii = test: Broth microdilution MIC, PJI isolates (Example 1); format: cell-based, Acinetobacter baumannii; conditions: RPMI; N = 24
Description: as §1

E. Coli ATCC 25922 = system: E. Coli ATCC 25922
Description: (§2) SEQ ID NO: 1 stocks were made at 5.12 mg/mL in water adjusted to pH of 5.0 with 1% glacial acetic acid.
(§3) The test organisms (Table 7) consisted of clinical isolates from the Micromyx (MMX) repository, a reference isolate from the American Type Culture Collection (ATCC, Manassas, VA) and the Centers for Disease Control (CDC, Atlanta GA). Upon initial receipt, the isolates were streaked under suitable conditions onto agar medium appropriate to each organism. The organisms were incubated for 18-24 hr at 35° C. in ambient atmosphere. Colonies harvested from these growth plates were resuspended in the appropriate medium containing a cryoprotectant. Aliquots of each suspension were then stored frozen at −80° C. Prior to testing, all organisms were cultured onto trypticase soy agar containing 5% sheep blood. The agar plates were incubated as described above.
(§4) The Test media used for MIC and FIC were testing were cation-adjusted Mueller-Hinton broth (CAMHB) and Roswell Park Memorial Institute (RPMI-1640), buffered with 3-(N-morpholino)propanesulfonic acid (MOPS). Each test media was supplemented with 0.002% Tween-80 (P-80) prior to testing.
(§5) MIC assay plates were prepared for broth microdilution in accordance with guidelines from the Clinical and Laboratory Standards Institute (CLSI); automated liquid handlers (Biomek 3000 and Biomek FX) and multi-channel pipettes were used to conduct serial dilutions and liquid transfers. MIC assay plates were prepared using a 96-well, deep-well microdilution plate that mimicked the layout of the daughter plates.
(§6) For the mother plate, wells across the standard 96-well microdilution plate were filled with 150 μL of sterile saline 0.002% P-80 in columns 2 through 12. […] The Biomek 300 was used to make eleven 2-fold serial dilutions horizontally across each row of the plate from columns 2 through 11. The Biomek FX was then used to transfer 5 μL of the SEQ ID NO: 1 and saline 0.002% P-80 to the daughter plates.
(§7) A standardized inoculum of each organism was prepared per CLSI methods. Suspensions were prepared to equal a 0.5 McFarland standard followed by a 1:10 dilution into test medium. The inocula were dispensed into sterile reservoirs divided by length and the Biomek 3000 was used to inoculate the plates. Daughter plates were placed on the Biomek 3000 work surface in reverse orientation so that inoculation took place from low to high drug concentration. The Biomek 3000 delivered 10 μL of the diluted suspension into each well. These inoculations yielded a final cell concentration in the daughter plates of approximately 5×10^5 CFU/mL in each well. Plates were incubated at 35° C. for 16-20 hr. The microplates were viewed from the bottom using a plate viewer and the MIC was recorded as the lowest concentration of drug that inhibited visible growth of the organism.

E. Coli ATCC BAA-2469 = system: E. Coli ATCC BAA-2469
Description: as §2, §3, §4, §5, §6, §7

P. aeruginosa CDC 0515 = system: P. aeruginosa CDC 0515
Description: as §2, §3, §4, §5, §6, §7

S. epidermidis MMX 8655 = system: S. epidermidis MMX 8655
Description: as §2, §3, §4, §5, §6, §7

[1] = system: P. aeruginosa CDC 0515 biofilm; test: Microtiter plate biofilm studies (previous), resazurin viability
Source text: In those previous studies, mature biofilms were formed on polystyrene microtiter plates through growth in CAMHB, followed by exposure to SEQ ID NO: 1 and resazurin addition to measure cell viability.

Sequence: RRWVRRVRRVWRRVVRVVRRWVRR [SEQ ID NO: 1]
- MIC50 (S. aureus): 0.12 µg/mL
- MIC90 (S. aureus): 0.12 µg/mL
- MIC50 (Enterobacterales): 0.5 µg/mL
- MIC90 (Enterobacterales): 0.5 µg/mL
- MIC50 (A. baumannii): 0.25 µg/mL
- MIC90 (A. baumannii): 0.25 µg/mL
- MIC (E. Coli ATCC 25922; CAMHB): 4 µg/mL
- MIC (E. Coli ATCC 25922; RPMI): 0.5 µg/mL
- MIC (E. Coli ATCC BAA-2469; CAMHB): 4 µg/mL
- MIC (E. Coli ATCC BAA-2469; RPMI): 0.5 µg/mL
- MIC (P. aeruginosa CDC 0515; CAMHB): 8 µg/mL
- MIC (P. aeruginosa CDC 0515; RPMI): 1 µg/mL
- MIC (S. epidermidis MMX 8655; CAMHB): 0.5 µg/mL
- MIC (S. epidermidis MMX 8655; RPMI): 0.12 µg/mL
- MIC (S. epidermidis MMX 8655; stated in FIG. 3 legends (time-kill)): 1 µg/mL
- decrease in cell viability (resazurin reduction) ([1]; 500 μg/mL, 15 minutes): ca. 70%
- MIC ([1]; two previous microtiter plate biofilm studies): 8 µg/mL and 16 µg/mL
